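All cell lines were grown in 96-well plates and treated with compound for 48 hours. GI50 is the concentration that inhibits growth by half.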 Activity calls are given as the source filed them. Cut-off read from the data, not from the text of the source: active = GI50 up to about 1.1 µM and inactive = higher.
Experiments:
Assay in all cases: DTP human tumour cell line panel, 48 h
MOLT-4 = system: MOLT-4
SNB-19 = system: SNB-19
NCI-H460 = system: NCI-H460
786-0 = system: 786-0
OVCAR-8 = system: OVCAR-8
SK-MEL-2 = system: SK-MEL-2
KM12 = system: KM12
NCI-H23 = system: NCI-H23
UO-31 = system: UO-31
SK-MEL-5 = system: SK-MEL-5
SW-620 = system: SW-620
HL-60 = system: HL-60
SF-295 = system: SF-295
RXF 393 = system: RXF 393
SR = system: SR
A498 = system: A498
SN12C = system: SN12C

Measured: GI50

O=C(c1ccccc1)C1N=NN(Cc2ccccc2[N+](=O)[O-])C1C(=O)c1ccccc1 (stereo not given)
inactive: MOLT-4 > 100 µM | SNB-19 > 100 µM | NCI-H460 > 100 µM | 786-0 > 100 µM | OVCAR-8 > 100 µM | SK-MEL-2 > 100 µM | KM12 > 100 µM | NCI-H23 > 100 µM | UO-31 > 100 µM | SK-MEL-5 > 100 µM | SW-620 > 100 µM | HL-60 > 100 µM | SF-295 > 100 µM | RXF 393 > 100 µM | SR > 100 µM

CC1=C(C(=O)NCc2ccccc2)C(c2ccc(Cl)c(Cl)c2)C(C(=O)NCc2ccccc2)=C(C)N1
inactive: A498 > 100 µM | MOLT-4 > 100 µM | SNB-19 > 100 µM | NCI-H460 > 100 µM | 786-0 > 100 µM | SN12C > 100 µM | OVCAR-8 > 100 µM | SK-MEL-2 > 100 µM | KM12 > 100 µM | NCI-H23 > 100 µM | UO-31 > 100 µM | SK-MEL-5 > 100 µM | SW-620 > 100 µM | HL-60 > 100 µM | SF-295 > 100 µM | RXF 393 > 100 µM | SR > 100 µM

Cc1cccc(C)c1NC(=O)CCC(=O)/N=C(\N)NC#N
inactive: A498 > 100 µM | MOLT-4 > 100 µM | SNB-19 > 100 µM | NCI-H460 > 100 µM | 786-0 > 100 µM | SN12C > 100 µM | OVCAR-8 > 100 µM | KM12 > 100 µM | NCI-H23 > 100 µM | UO-31 > 100 µM | SK-MEL-5 > 100 µM | SW-620 > 100 µM | HL-60 > 100 µM | SF-295 > 100 µM | RXF 393 > 100 µM | SR > 100 µM

O=C1C2C(C(=O)N1c1ccccc1)C1([N+](=O)[O-])C=C3c4ccccc4N(C(=O)c4ccccc4)C32C2C(=O)N(c3ccccc3)C(=O)C21 (stereo not given)
inactive: A498 > 100 µM | MOLT-4 > 100 µM | SNB-19 > 100 µM | NCI-H460 > 100 µM | 786-0 > 100 µM | SN12C > 100 µM | OVCAR-8 > 100 µM | SK-MEL-2 > 100 µM | KM12 > 100 µM | NCI-H23 > 100 µM | UO-31 > 100 µM | SW-620 > 100 µM | HL-60 > 100 µM | SF-295 > 100 µM | SR > 100 µM

CN1C(=O)C(=CN(C)c2ccccc2)C(=O)N(C)C1=O
inactive: A498 95.7 µM | MOLT-4 > 100 µM | SNB-19 > 100 µM | NCI-H460 > 100 µM | 786-0 > 100 µM | SN12C > 100 µM | OVCAR-8 > 100 µM | SK-MEL-2 > 100 µM | KM12 > 100 µM | UO-31 > 100 µM | SK-MEL-5 > 100 µM | SW-620 80.5 µM | HL-60 51.1 µM | SF-295 > 100 µM | RXF 393 69 µM | SR 37.2 µM

CC1CCCC(C(O)CC2CC(=O)N(c3ccccc3)C(=O)C2)C1=O (stereo not given)
inactive: A498 > 100 µM | MOLT-4 > 100 µM | SNB-19 > 100 µM | NCI-H460 > 100 µM | 786-0 > 100 µM | SN12C > 100 µM | OVCAR-8 > 100 µM | KM12 > 100 µM | NCI-H23 > 100 µM | UO-31 > 100 µM | SW-620 > 100 µM | HL-60 > 100 µM | SF-295 > 100 µM | RXF 393 > 100 µM | SR > 100 µM

N#CC1=C(Cl)NC(Cl)=C(C#N)C1c1ccc(Cl)cc1
inactive: A498 32.4 µM | MOLT-4 18.7 µM | SNB-19 16.6 µM | NCI-H460 17 µM | 786-0 15.8 µM | SN12C 16.9 µM | OVCAR-8 16.2 µM | SK-MEL-2 13.9 µM | KM12 17.6 µM | NCI-H23 17.9 µM | UO-31 17 µM | SK-MEL-5 17 µM | SW-620 13.5 µM | HL-60 18.5 µM | SF-295 27.2 µM | RXF 393 17.1 µM | SR 21.7 µM

CCOc1ccccc1NC(=O)C1=C(C)NC(C)=C(C(=O)Nc2ccccc2OCC)C1c1cccc([N+](=O)[O-])c1
inactive: A498 51.2 µM | MOLT-4 11.8 µM | SNB-19 > 100 µM | NCI-H460 87.9 µM | 786-0 57.9 µM | SN12C > 100 µM | OVCAR-8 86.5 µM | SK-MEL-2 39.3 µM | KM12 49.9 µM | NCI-H23 > 100 µM | UO-31 28.2 µM | SK-MEL-5 32.1 µM | SW-620 42.6 µM | HL-60 30.5 µM | SF-295 > 100 µM | RXF 393 47.4 µM

CC(=O)CC(=O)N(CCN(C(=O)CC(C)=O)c1ccccc1)c1ccccc1
inactive: A498 > 100 µM | MOLT-4 > 100 µM | SNB-19 > 100 µM | NCI-H460 > 100 µM | 786-0 > 100 µM | SN12C > 100 µM | OVCAR-8 > 100 µM | SK-MEL-2 > 100 µM | KM12 > 100 µM | NCI-H23 > 100 µM | UO-31 > 100 µM | SK-MEL-5 > 100 µM | SW-620 > 100 µM | HL-60 43.4 µM | SF-295 > 100 µM | RXF 393 > 100 µM

CC1(O)CC2C(CC1SC1CC3C(CC1(C)O)C3(C)C)C2(C)C (stereo not given)
inactive: MOLT-4 43.1 µM | NCI-H460 30.7 µM | 786-0 43.6 µM | SN12C 36.1 µM | OVCAR-8 41.9 µM | SK-MEL-2 40.1 µM | KM12 46.8 µM | NCI-H23 41.7 µM | UO-31 24 µM | SK-MEL-5 11.6 µM | HL-60 22.9 µM | SF-295 46 µM

COc1cc2c(cc1OC)C1c3ccccc3C(C#N)(C2)N(C(=O)c2ccccc2)C1O (stereo not given)
inactive: MOLT-4 35.2 µM | SNB-19 59 µM | NCI-H460 59.7 µM | 786-0 > 100 µM | SN12C > 100 µM | OVCAR-8 54.2 µM | SK-MEL-2 56.5 µM | KM12 46.5 µM | NCI-H23 84.5 µM | UO-31 61.8 µM | SK-MEL-5 30.7 µM | SW-620 65 µM | HL-60 42.3 µM | SF-295 > 100 µM | RXF 393 85.5 µM | SR 79.8 µM

CC(C)N(C(=O)C12C3C4C1C1C2C3C41I)C(C)C (stereo not given)
inactive: A498 > 100 µM | MOLT-4 > 100 µM | SNB-19 > 100 µM | NCI-H460 > 100 µM | 786-0 > 100 µM | SN12C > 100 µM | OVCAR-8 > 100 µM | KM12 > 100 µM | NCI-H23 > 100 µM | UO-31 > 100 µM | SK-MEL-5 > 100 µM | SW-620 > 100 µM | HL-60 > 100 µM | SF-295 > 100 µM | SR > 100 µM

Fc1cccc(/C=N/C23CC4CC(CC(C4)C2)C3)c1
inactive: A498 > 100 µM | MOLT-4 > 100 µM | SNB-19 > 100 µM | NCI-H460 > 100 µM | 786-0 > 100 µM | SN12C > 100 µM | OVCAR-8 > 100 µM | SK-MEL-2 > 100 µM | KM12 > 100 µM | NCI-H23 > 100 µM | UO-31 > 100 µM | HL-60 > 100 µM | SF-295 > 100 µM | RXF 393 > 100 µM

COC(=O)C1=C(O)c2cc3c(cc2[C@H](c2cc(OC)c(OC)c(OC)c2)C1)OCO3
inactive: A498 22.5 µM | MOLT-4 24.1 µM | SNB-19 > 100 µM | NCI-H460 34 µM | 786-0 58.5 µM | SN12C 54.1 µM | OVCAR-8 51.3 µM | KM12 23.3 µM | NCI-H23 41.7 µM | UO-31 3.24 µM | SK-MEL-5 20.8 µM | SW-620 61.4 µM | HL-60 14.3 µM | SF-295 37.5 µM | RXF 393 57.9 µM | SR 30.8 µM

CC1=CCCC2C(C=O)(C1)CC(C)C2(CO)CC/C(=C/CO)CO (stereo not given)
inactive: A498 > 100 µM | MOLT-4 44.7 µM | NCI-H460 > 100 µM | 786-0 > 100 µM | SN12C > 100 µM | OVCAR-8 > 100 µM | KM12 > 100 µM | NCI-H23 90.6 µM | UO-31 24.9 µM | SK-MEL-5 > 100 µM | SW-620 > 100 µM | SF-295 > 100 µM | RXF 393 > 100 µM

CCN(c1n[n+]2c(-c3ccccc3)csc2s1)c1n[n+]2c(-c3ccccc3)csc2s1
inactive: MOLT-4 37.5 µM | SNB-19 > 100 µM | NCI-H460 53.1 µM | 786-0 > 100 µM | SN12C > 100 µM | OVCAR-8 74.3 µM | SK-MEL-2 44.1 µM | KM12 30.8 µM | NCI-H23 44.6 µM | UO-31 > 100 µM | SK-MEL-5 38 µM | SW-620 94.6 µM | HL-60 22.3 µM | SF-295 > 100 µM | RXF 393 65.9 µM | SR 20.5 µM

Cc1c(C(=O)/C=C/c2ccccc2)[n+]([O-])c2ccccc2[n+]1[O-]
inactive: A498 15.8 µM | MOLT-4 21.3 µM | SNB-19 15.7 µM | NCI-H460 17.6 µM | 786-0 17.2 µM | SN12C 13.8 µM | OVCAR-8 15 µM | KM12 15.9 µM | NCI-H23 15.7 µM | UO-31 20 µM | SW-620 14.8 µM | HL-60 13.9 µM | SF-295 16.4 µM | RXF 393 2.07 µM | SR 23.2 µM
